From patent US12398111B2, “Triazine compounds and pharmaceutical use thereof” (Japan Tobacco Inc., priority 2014, dated 2025)

Key:
human mPGES-1 = biological target: T1, human mPGES-1 (Homo sapiens, UniProt O14684); test: Evaluation of human mPGES-1 enzyme inhibitory activity (PGE2 measured by HTRF, microsome fraction of CHO-S cells expressing human mPGES-1); assay type: biochemical; settings: IC50 value; microsome fraction of CHO-S cells expressing human mPGES-1, PGE2 by HTRF
T1 construct: made in house; host or cells: FreeStyle CHO-S cells (Chinese hamster ovary), transient transfection with pcDNA3.1(+)/human mPGES-1; microsome fraction used
T1 sequence (O14684 1-152): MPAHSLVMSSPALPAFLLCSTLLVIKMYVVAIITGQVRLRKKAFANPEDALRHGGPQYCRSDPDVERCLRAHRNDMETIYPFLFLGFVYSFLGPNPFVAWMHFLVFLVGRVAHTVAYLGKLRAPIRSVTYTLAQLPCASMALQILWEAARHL
Summary of the method: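 Enzyme source: microsomes from CHO-S cells transfected with human mPGES-1 and cultured 48 hr, diluted to 5 μg/mL protein in reduced GSH (12.5 mmol/L KPB solution). Test articles were in 0.1 mol/L potassium phosphate pH 7.4, final DMSO 2% (v/v). PGE2 formed was quantified by HTRF.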

[1] = system: prostaglandins in guinea pig secondary aqueous humor; test: Effect on prostaglandin composition in guinea pig aqueous humor (instillation of 0.003% ophthalmic solution, LC/MS/MS); assay type: in vivo, Hartley male guinea pig; settings: 24 hr after instillation of 0.003% ophthalmic solution
Procedure: A test article was dissolved in saline containing 0.5% polysorbate80 (Fluka) and 0.003% ophthalmic solution (pH 7.0-8.0) was prepared. The test article was administered to Hartley male guinea pig by instillation of 20 μL thereof to one eye by using a micropipette. After instillation, the lacrimal part was lightly fixed by gently pressing the lower eyelid for about 15 seconds. The opposite eye was treated in the same manner. To the vehicle group was administered the medium (0.5% polysorbate-containing saline) by a method similar to that for the test article. After 23 hr from the instillation, Mydrin P (registered trade mark) 0.5% ophthalmic solution (Santen Pharmaceutical Co., Ltd., general name: tropicamide/phenylephrine hydrochloride) was dropwisely added by one drop to the both eyes of a guinea pig to cause mydriasis. The guinea pig was anesthetized with Escain (registered trade mark) inhalation anesthetics (Pfizer Inc., general name: isoflurane), the cornea of the both eyes was tapped with a 30G injection needle, and the leaked aqueous humor (primary aqueous humor) was collected. One hour later (24 hr after instillation), the guinea pig was anesthetized again with isoflurane, and the secondary aqueous humor was collected in the same manner. The concentration of prostaglandins in the secondary aqueous humor obtained from each group (4 guinea pigs, 8 eyes) was measured by the LC/MS/MS system (Ultra high performance liquid chromatography: Nexera (registered trademark) manufactured by Shimadzu Corporation, mass spectrometer: […]), and the concentration ratio of each prostaglandin concentration relative to the total of all prostaglandin concentrations was calculated.

With CCCCOc1ccc(-c2nc(O)nc(-c3cc(CNC(=O)C(C)(C)C(F)(F)F)ccc3Cl)n2)cc1 [Example 1-131, N-{3-[4-(4-butoxyphenyl)-6-hydroxy-1,3,5-triazin-2-yl]-4-chlorobenzyl}-3,3,3-trifluoro-2,2-dimethylpropionamide] the IC50 (human mPGES-1) was 0.9 nM, the “6-keto-PGF1α (%)” value [1] was 27.9% and the “PGD2 (%)” value [1] was 18.8%. The “PGE2 (%)” value [1] was 42.9%, the “PGF2α (%)” value [1] was 9.8% and the “TXB2 (%)” value [1] was 0.6%.
With CCCOc1ccc(-c2nc(O)nc(-c3cc(CNC(=O)C(C)(C)C(F)(F)F)ccc3Cl)n2)cc1 [Example 1-122, N-{4-chloro-3-[4-hydroxy-6-(4-propoxyphenyl)-1,3,5-triazin-2-yl]benzyl}-3,3,3-trifluoro-2,2-dimethylpropionamide] the IC50 (human mPGES-1) was 1.3 nM, the “6-keto-PGF1α (%)” value [1] was 27.7% and the “PGD2 (%)” value [1] was 23%. The “PGE2 (%)” value [1] was 37.3%, the “PGF2α (%)” value [1] was 11.7% and the “TXB2 (%)” value [1] was 0.2%.
CC(C(=O)NCc1ccc(Cl)c(-c2nc(O)nc(-c3ccc(OCC4CC4)cc3)n2)c1)(C(F)(F)F)C(F)(F)F [Example 1-169, N-{4-chloro-3-[4-(4-cyclopropylmethoxyphenyl)-6-hydroxy-1,3,5-triazin-2-yl]benzyl}-3,3,3-trifluoro-2-methyl-2-trifluoromethylpropionamide] was tested, and the IC50 (human mPGES-1) was 2 nM, the “6-keto-PGF1α (%)” value [1] was 40.3% and the “PGD2 (%)” value [1] was 17%. For the same molecule, the “PGE2 (%)” value [1] was 28.7%, the “PGF2α (%)” value [1] was 13.5% and the “TXB2 (%)” value [1] was 0.5%.
With C[C@H](Oc1ccc(-c2nc(O)nc(-c3cc(CNC(=O)C(C)(C)C(F)(F)F)ccc3Cl)n2)cc1)C1CC1 [Example 1-184, N-(4-chloro-3-{4-[4-((S)-1-cyclopropylethoxy)phenyl]-6-hydroxy-1,3,5-triazin-2-yl}benzyl)-3,3,3-trifluoro-2,2-dimethylpropionamide] the IC50 (human mPGES-1) was 1.9 nM, the “6-keto-PGF1α (%)” value [1] was 21.2% and the “PGD2 (%)” value [1] was 10.7%. For the same molecule, the “PGE2 (%)” value [1] was 57%, the “PGF2α (%)” value [1] was 10.3% and the “TXB2 (%)” value [1] was 0.8%.
In the case of CCCOc1ccc(-c2nc(O)nc(-c3cc(CNC(=O)[C@@](C)(OC)C(F)(F)F)ccc3Cl)n2)cc1 [Example 1-137, (R)—N-{4-chloro-3-[4-hydroxy-6-(4-propoxyphenyl)-1,3,5-triazin-2-yl]benzyl}-3,3,3-trifluoro-2-methoxy-2-methylpropionamide], the IC50 (human mPGES-1) is reported as 0.5 nM, the “6-keto-PGF1α (%)” value [1] is reported as 24.8% and the “PGD2 (%)” value [1] is reported as 14.1%. For the same molecule, the “PGE2 (%)” value [1] was 49.5%, the “PGF2α (%)” value [1] was 11.3% and the “TXB2 (%)” value [1] was 0.3%.
For Cc1ccc(-c2nc(O)nc(-c3cc(CNC(=O)C(C)(C)C(F)(F)F)ccc3Cl)n2)cc1C [Example 1-150, N-{4-chloro-3-[4-(3,4-dimethylphenyl)-6-hydroxy-1,3,5-triazin-2-yl]benzyl}-3,3,3-trifluoro-2,2-dimethylpropionamide], the IC50 (human mPGES-1) was 0.4 nM, the “6-keto-PGF1α (%)” value [1] was 14% and the “PGD2 (%)” value [1] was 8%. The “PGE2 (%)” value [1] was 69%, the “PGF2α (%)” value [1] was 8.9% and the “TXB2 (%)” value [1] was 0.2%.
With Cc1ccc(-c2nc(O)nc(-c3cc(CNC(=O)C(C)(C)C(F)(F)F)ccc3Cl)n2)cc1F [Example 1-81, N-{4-chloro-3-[4-(3-fluoro-4-methylphenyl)-6-hydroxy-1,3,5-triazin-2-yl]benzyl}-3,3,3-trifluoro-2,2-dimethylpropionamide] the IC50 (human mPGES-1) was 0.6 nM, the “6-keto-PGF1α (%)” value [1] was 15.7% and the “PGD2 (%)” value [1] was 13.2%. The “PGE2 (%)” value [1] was 60%, the “PGF2α (%)” value [1] was 9.8% and the “TXB2 (%)” value [1] was 1.3%.
For C[C@@H](Oc1ccc(-c2nc(O)nc(-c3cc(CNC(=O)C(C)(C)C(F)(F)F)ccc3Cl)n2)cc1)C1CC1 [Example 1-185, N-(4-chloro-3-{4-[4-((R)-1-cyclopropylethoxy)phenyl]-6-hydroxy-1,3,5-triazin-2-yl}benzyl)-3,3,3-trifluoro-2,2-dimethylpropionamide], the IC50 (human mPGES-1) was 1.7 nM, the “6-keto-PGF1α (%)” value [1] was 25.4% and the “PGD2 (%)” value [1] was 12.1%. For the same molecule, the “PGE2 (%)” value [1] was 50%, the “PGF2α (%)” value [1] was 11% and the “TXB2 (%)” value [1] was 1.6%.
CC(C)(C(=O)NCc1ccc(Cl)c(-c2nc(O)nc(-c3ccc(F)c(C4CC4)c3)n2)c1)C(F)(F)F [Example 1-135, N-{4-chloro-3-[4-(3-cyclopropyl-4-fluorophenyl)-6-hydroxy-1,3,5-triazin-2-yl]benzyl}-3,3,3-trifluoro-2,2-dimethylpropionamide] was tested, and the IC50 (human mPGES-1) was 0.5 nM, the “6-keto-PGF1α (%)” value [1] was 19.4% and the “PGD2 (%)” value [1] was 10.9%. The “PGE2 (%)” value [1] was 56.1%, the “PGF2α (%)” value [1] was 12.7% and the “TXB2 (%)” value [1] was 0.9%.
For Cc1ccc(-c2nc(O)nc(-c3cc(CNC(=O)C(C)(C)C(F)(F)F)ccc3Cl)n2)cc1Cl [Example 1-129, N-{4-chloro-3-[4-(3-chloro-4-methylphenyl)-6-hydroxy-1,3,5-triazin-2-yl]benzyl}-3,3,3-trifluoro-2,2-dimethylpropionamide], the IC50 (human mPGES-1) was 0.6 nM, the “6-keto-PGF1α (%)” value [1] was 18.1% and the “PGD2 (%)” value [1] was 9.2%. The “PGE2 (%)” value [1] was 62.5%, the “PGF2α (%)” value [1] was 10.2% and the “TXB2 (%)” value [1] was 0%.
With CC(C)COc1ccc(-c2nc(O)nc(-c3cc(CNC(=O)C(C)(C)C(F)(F)F)ccc3Cl)n2)cc1 [Example 1-109, N-{4-chloro-3-[4-hydroxy-6-(4-isobutoxyphenyl)-1,3,5-triazin-2-yl]benzyl}-3,3,3-trifluoro-2,2-dimethylpropionamide] the IC50 (human mPGES-1) was 2.5 nM, the “6-keto-PGF1α (%)” value [1] was 37.5% and the “PGD2 (%)” value [1] was 18.9%. For the same molecule, the “PGE2 (%)” value [1] was 29.5%, the “PGF2α (%)” value [1] was 14.1% and the “TXB2 (%)” value [1] was 0.1%.
CC(C)Cc1ccc(-c2nc(O)nc(-c3cc(CNC(=O)C(C)(C)C)ccc3Cl)n2)cc1 [Example 1-51, N-{4-chloro-3-[4-(4-isobutylphenyl)-6-hydroxy-1,3,5-triazin-2-yl]benzyl}-2,2-dimethylpropionamide] was tested, and the IC50 (human mPGES-1) was 1 nM, the “6-keto-PGF1α (%)” value [1] was 21.7% and the “PGD2 (%)” value [1] was 13.2%. The “PGE2 (%)” value [1] was 50.7%, the “PGF2α (%)” value [1] was 14% and the “TXB2 (%)” value [1] was 0.4%.
With CC(C)c1ccc(-c2nc(O)nc(-c3cc(CNC(=O)C(C)(C)C(F)(F)F)ccc3Cl)n2)cc1 [Example 1-98, N-{4-chloro-3-[4-hydroxy-6-(4-isopropylphenyl)-1,3,5-triazin-2-yl]benzyl}-3,3,3-trifluoro-2,2-dimethylpropionamide] the IC50 (human mPGES-1) was 0.9 nM, the “6-keto-PGF1α (%)” value [1] was 31.2% and the “PGD2 (%)” value [1] was 16.3%. For the same molecule, the “PGE2 (%)” value [1] was 38%, the “PGF2α (%)” value [1] was 14.2% and the “TXB2 (%)” value [1] was 0.3%.
In the case of CO[C@](C)(C(=O)NCc1ccc(Cl)c(-c2nc(O)nc(-c3ccc(Cl)c(C)c3)n2)c1)C(F)(F)F [Example 1-136, (R)—N-{4-chloro-3-[4-(4-chloro-3-methylphenyl)-6-hydroxy-1,3,5-triazin-2-yl]benzyl}-3,3,3-trifluoro-2-methoxy-2-methylpropionamide], the IC50 (human mPGES-1) is reported as 0.5 nM, the “6-keto-PGF1α (%)” value [1] is reported as 17.3% and the “PGD2 (%)” value [1] is reported as 7.4%. For the same molecule, the “PGE2 (%)” value [1] was 66.7%, the “PGF2α (%)” value [1] was 7.9% and the “TXB2 (%)” value [1] was 0.7%.
